Test results taken from US20250213519A1, “SYNERGY FOR INCREASING INSULIN SENSITIVITY” (Board of Supervisors of Louisiana State University and …, priority 2022, published 2025).
“Also recorded” adds a separate entry of the source.

Legend:
[1] = system: human adipocytes; assay: mRNA levels (qRT-PCR) in human adipocyte cultures treated for seven days; assay type: cell-based; details: for effects on gene expression of myricetin added to NRBC: added to nar ext + β-carotene, nanomolar myricetin
Description: In adipocytes, CDK5 inhibitors reduce adipogenesis and increase genes for energy expenditure by altering PPARγ target gene selection. We measured the expression of the PPARα/γ direct target gene UCP1 after treating human adipocyte cultures with CDK5-inhibiting flavonols combined with naringenin for seven days.
Human adipose-derived stem cells from overweight and obese female donors were purchased from LaCell, LLC (New Orleans, Louisiana) or isolated from lipoaspirate waste donated post-surgery from women with obesity using methods as previously described (31). Cells were seeded, maintained until two days after becoming confluent, and differentiated into adipocytes in the presence of rosiglitazone and isobutylmethylxanthine for five days as previously described (25). […], dissolved in DMSO at 1000×, started 5 days after the differentiation period and lasted for seven days in adipocyte maintenance medium with heat inactivated serum, before RNA and protein were isolated from adipocyte cultures.
Quantitative reverse transcriptase and real-time PCR were conducted in one reaction with the gene-specific reverse PCR primer also priming the cDNA synthesis as previously described (25). Primer-probe sequences for UCP1, GLUT4, ATGL, adiponectin, PGC-1α and ribosomal RPL13A, used to adjust target gene values for total RNA in each sample, have been previously reported (25). […] Predesigned human primer and probe sets from Thermofisher Scientific are PM20D1 Hs00399438_m1; ANGPTL4 Hs00211522_m1; GDF11 Hs00195156_m1; S100B Hs00902901_m1.

[2] = mice; cited from earlier work
[3] = system: cytochrome P450 and drug efflux pumps like P-glycoprotein; details: enhances availability of co-administered tamoxifen and losartan in rats; cited from earlier work
[4] = system: rat islets; details: rat islets incubated in high glucose; cited from earlier work
[5] = single dose injection; cited from earlier work
[6] = Estimated human Cmax of myricetin by conversion from rats; details: for Cmax: human, oral

O=c1c(O)c(-c2cc(O)c(O)c(O)c2)oc2cc(O)cc(O)c12 [myricetin]
UCP1 and GLUT4 mRNA, flavonol combined with naringenin ([1]; 2.5 μM flavonol + 8 μM naringenin extract, 7 days, vs naringenin alone (FIG. 1)): synergistically increased expression of UCP1 and GLUT4 | most active myricetin concentration with naringenin extract and β-carotene ([1]; 25, 50 and 100 nM tested with NRBC): 50 nM | myricetin concentration with most potent upregulation of gene expression ([1]; added to 8 μM naringenin, 0.1 μM to 6 μM tested): 0.1 µM | effects on gene expression of myricetin added to NRBC [1]: further upregulates gene expression; also recorded: almost doubles; also recorded: approximately doubles | effects on gene expression of myricetin added to NRBC ([1]; listed as Myricetin): enhances the effects on gene expression | increase in UCP-1 and GLUT-4 with naringenin ([1]; human fat cells, myricetin with naringenin): many fold greater increase in UCP-1 and GLUT-4 | gene expression, myricetin alone ([1]; low nanomolar concentrations, 7 days): no effect at any concentration | effects on gene expression combined with naringenin ([1]; myricetin 5 nM + 8 μM naringenin ext): slightly reduced | effects on gene expression combined with naringenin ([1]; myricetin 50 nM and 25 nM + 8 μM naringenin ext): remained strong | upregulation of thermogenic gene expression and adiponectin ([1]; myricetin added to naringenin alone or to naringenin and beta carotene): approximately doubles | Tox [2]: 1000 mg/kg/day | inhibition of cytochrome P450 and efflux pumps [3]: inhibits cytochrome P450 and drug efflux pumps like P-glycoprotein | insulin release [4]: stimulated insulin release | blood glucose levels [5]: maintained reduced blood glucose levels for eight hours | Human Cmax ([6]; 564 mg dose, conversion from 50 mg/kg in rats): 39.4 µM | Cmax ([6]; 10 mg): ~400 nM | Cmax ([6]; 564 mg): ~2500 nM
